# Patent US20250135022A1, “METHODS FOR THE USE OF A B7-H3 ANTIBODY-DRUG CONJUGATE IN COMBINATION WITH A PD-1 X CTLA-4 BISPECIFIC MOLECULE” (MACROGENICS, INC., priority 2022, published 2025)
# Experiments:
# [1] = system: MDA-MB-468 triple negative breast cancer cells; experiment: Anti-tumor activity against subcutaneously implanted MDA-MB-468 xenograft in SCID CES1c-KO mouse model; type: in vivo, SCID CES1c-KO mice; parameters: key to Anti-Tumor Activity: Highly Active: A T/C<10% is considered highly active; Active: a T/C≤42% is the minimum level of anti-tumor activity; Inactive: a T/C value of >42% is inactive
# Procedure: In brief, ˜5×10^6 tumor cells (suspended in 1:1 media and MATRIGEL®) were subcutaneously implanted into the flank of female SCID CES1c-KO mice (Charles River Laboratories). When tumors had reached a volume of approximately 45-135 mm^3 (average 73 mm^3) on day 54, the mice were randomized and MGC018 or control vehicle were administered intravenously. In these studies, mice were administered either a single dose (1 mg/kg or 3 mg/kg, QW×1) of MGC018 or a fractionated dose of MGC018 (0.3 mg/kg or 1 mg/kg) once a week for 4 weeks (QW×4W). Vehicle was administered as a control on day 54. Tumors were measured twice weekly by orthogonal measurements with electronic calipers, with tumor volumes calculated as: (length×width×height)/2. The tumor volume (relative to control) was determined (“T/C”). A finding that the tumor volume of treated animals had decreased to ≤5 mm^3 during the study period was considered to denote a Complete Regression (“CR”) and a Partial Regression (“PR”) was defined when tumors were reduced by 50% or greater from day of dosing at any point during the study.
# Calu-6 lung cancer cells = experiment: Anti-tumor activity against subcutaneously implanted Calu-6 xenograft in CD-1 Nude mouse model; type: in vivo, CD-1 Nude mice; parameters: key to Anti-Tumor Activity: Highly Active: A T/C<10% is considered highly active; Active: a T/C≤42% is the minimum level of anti-tumor activity; Inactive: a T/C value of >42% is inactive
# Procedure: In brief, ˜5×10^6 tumor cells (suspended in 1:1 media and MATRIGEL®) were subcutaneously implanted into the flank of female CD-1 Nude mice (homozygous; Charles River Laboratories). When tumors had reached a volume of approximately 100-235 mm3 (average 172 mm^3) on day 21, the mice were randomized and MGC018 or control vehicle were administered intravenously. In these studies, mice were administered either a single dose (12 mg/kg, QW×1) of MGC018 or a fractionated dose of MGC018 (0.3 mg/kg, 1 mg/kg, or 3 mg/kg) once a week for 4 weeks (QW×4W). Vehicle was administered as a control on day 21. Tumors were measured twice weekly by orthogonal measurements with electronic calipers, with tumor volumes calculated as: (length×width×height)/2. The tumor volume (relative to control) was determined (“T/C”). A finding that the tumor volume of treated animals had decreased to ≤5 mm^3 during the study period was considered to denote a Complete Regression (“CR”) and a Partial Regression (“PR”) was defined when tumors were reduced by 50% or greater from day of dosing at any point during the study.
# A375.S2 melanoma cells = experiment: Anti-tumor activity against subcutaneously implanted A375.S2 xenograft in SCID CES1c-KO mouse model; type: in vivo, SCID CES1c-KO mice
# Procedure: In brief, ˜5×10^6 A375.S2 tumor cells (suspended in 1:1 media and MATRIGEL®) were subcutaneously implanted into the flank of female SCID CES1c-KO mice (Charles River Laboratories). When tumors had reached a volume of approximately 70-255 mm^3 (average 124 mm^3) on day 22, the mice were randomized and MGC018 or control vehicle were administered intravenously. In these studies, mice were administered either a single dose (1 mg/kg or 3 mg/kg, QW×1) of MGC018 or a fractionated dose of MGC018 (0.3 mg/kg or 1 mg/kg) once a week for 4 weeks (QW×4W). Vehicle was administered as a control on day 22. Tumors were measured twice weekly by orthogonal measurements with electronic calipers, with tumor volumes calculated as: (length×width×height)/2. The tumor volume (relative to control) was determined (“T/C”). A finding that the tumor volume of treated animals had decreased to ≤5 mm^3 during the study period was considered to denote a Complete Regression (“CR”) and a Partial Regression (“PR”) was defined when tumors were reduced by 50% or greater from day of dosing at any point during the study.
# [2] = 0.3 mg/kg, QW × 4W, intravenous
# [3] = fractionated 0.3 and 1 mg/kg QW×4W vs single 1 or 3 mg/kg QW×1
substance,measurement,setting,value
"MGC018: B7-H3-ADC: Light and Heavy Chain of anti-B7-H3 hmAb-A (SEQ ID NO:19, 20) conjugated via maleimide, valine-citrulline, para-aminobenzyloxycarbonyl linker to seco-DUBA payload",% T/C at Day 70,[1]; [2],64%
same,Anti-Tumor Activity,[1]; [2],Inactive
same,CR (complete regression),[1]; [2],0/5
same,PR (partial regression),[1]; [2],2/5
same,% T/C at Day 70,"[1]; 1 mg/kg, QW × 1, intravenous",26%
same,Anti-Tumor Activity,"[1]; 1 mg/kg, QW × 1, intravenous",Active
same,CR (complete regression),"[1]; 1 mg/kg, QW × 1, intravenous",0/5
same,PR (partial regression),"[1]; 1 mg/kg, QW × 1, intravenous",4/5
same,% T/C at Day 70,"[1]; 1 mg/kg, QW × 4W, intravenous",22%
same,Anti-Tumor Activity,"[1]; 1 mg/kg, QW × 4W, intravenous",Active
same,CR (complete regression),"[1]; 1 mg/kg, QW × 4W, intravenous",3/5
same,PR (partial regression),"[1]; 1 mg/kg, QW × 4W, intravenous",5/5
same,% T/C at Day 70,"[1]; 3 mg/kg, QW × 1, intravenous",12%
same,Anti-Tumor Activity,"[1]; 3 mg/kg, QW × 1, intravenous",Active
same,CR (complete regression),"[1]; 3 mg/kg, QW × 1, intravenous",5/5
same,PR (partial regression),"[1]; 3 mg/kg, QW × 1, intravenous",5/5
same,anti-tumor activity of fractionated dose compared with single dose,[1]; [3],near equivalent anti-tumor activity
same,% T/C at Day 44,Calu-6 lung cancer cells; [2],78%
same,Anti-Tumor Activity,Calu-6 lung cancer cells; [2],Active
same,CR (complete regression),Calu-6 lung cancer cells; [2],0/7
same,PR (partial regression),Calu-6 lung cancer cells; [2],0/7
same,% T/C at Day 44,"Calu-6 lung cancer cells; 1 mg/kg, QW × 4W, intravenous",30%
same,Anti-Tumor Activity,"Calu-6 lung cancer cells; 1 mg/kg, QW × 4W, intravenous",Active
same,CR (complete regression),"Calu-6 lung cancer cells; 1 mg/kg, QW × 4W, intravenous",0/7
same,PR (partial regression),"Calu-6 lung cancer cells; 1 mg/kg, QW × 4W, intravenous",0/7
same,% T/C at Day 44,"Calu-6 lung cancer cells; 3 mg/kg, QW × 4W, intravenous",17%
same,Anti-Tumor Activity,"Calu-6 lung cancer cells; 3 mg/kg, QW × 4W, intravenous",Active
same,CR (complete regression),"Calu-6 lung cancer cells; 3 mg/kg, QW × 4W, intravenous",0/7
same,PR (partial regression),"Calu-6 lung cancer cells; 3 mg/kg, QW × 4W, intravenous",2/7
same,% T/C at Day 44,"Calu-6 lung cancer cells; 12 mg/kg, QW × 1, intravenous",6%
same,CR (complete regression),"Calu-6 lung cancer cells; 12 mg/kg, QW × 1, intravenous",0/7
same,PR (partial regression),"Calu-6 lung cancer cells; 12 mg/kg, QW × 1, intravenous",2/7
same,anti-tumor activity of fractionated dose compared with single dose,"Calu-6 lung cancer cells; fractionated 0.3, 1 and 3 mg/kg QW×4W vs single 12 mg/kg QW×1",near equivalent anti-tumor activity
same,% T/C at Day 53,A375.S2 melanoma cells; [2],6%
same,CR (complete regression),A375.S2 melanoma cells; [2],0/7
same,PR (partial regression),A375.S2 melanoma cells; [2],4/7
same,% T/C at Day 53,"A375.S2 melanoma cells; 1 mg/kg, QW × 1, intravenous",5%
same,CR (complete regression),"A375.S2 melanoma cells; 1 mg/kg, QW × 1, intravenous",0/7
same,PR (partial regression),"A375.S2 melanoma cells; 1 mg/kg, QW × 1, intravenous",7/7
same,% T/C at Day 53,"A375.S2 melanoma cells; 1 mg/kg, QW × 4W, intravenous",1%
same,CR (complete regression),"A375.S2 melanoma cells; 1 mg/kg, QW × 4W, intravenous",6/7
same,PR (partial regression),"A375.S2 melanoma cells; 1 mg/kg, QW × 4W, intravenous",7/7
same,% T/C at Day 53,"A375.S2 melanoma cells; 3 mg/kg, QW × 1, intravenous",1%
same,CR (complete regression),"A375.S2 melanoma cells; 3 mg/kg, QW × 1, intravenous",7/7
same,PR (partial regression),"A375.S2 melanoma cells; 3 mg/kg, QW × 1, intravenous",7/7
same,anti-tumor activity of fractionated dose compared with single dose,A375.S2 melanoma cells; [3],near equivalent anti-tumor activity
